Patent US11860174B2, “Anti-cannabidiol antibody and uses thereof” (BOMI, LLC, priority 2017, dated 2024)

Target: T1, human CB2 receptors (Homo sapiens, UniProt P34972)
T1 construct: expressed in transfected cells; host or cells: CHO cells (membrane fraction)
Assay: CHO-CB2 radioligand displacement binding (filtration)
Settings: membranes of CB2 cells, Cheng & Prusoff, n = 3 or 4
Experimental: CHO cells and membrane preparation. These were stably transfected with cDNA encoding human CB2 receptors. […] Cells were maintained at 37° C. and 5% CO2 in DMEM (f-12 HAM) with 2 mm Glutamine, Geneticin (600 μg ml−1) and Hygromycin (300 μg ml−1). […] CHO cells were suspended in 50 mm Tris buffer (pH 7.4) and 0.32 m sucrose and homogenized with an Ultra-Turrex homogenizer. The homogenate was diluted with 50 mm Tris buffer (pH 7.4) and centrifuged at 50,000×g for 1 hour to isolate the membranes.
CHO—CB2 binding. […] Binding was initiated by the addition of cell membranes (20-30 μg protein). Assays were carried out at 30° C. for 90 minutes before termination by addition of ice-cold wash buffer (50 mm Tris buffer, 1 mg ml−1 BSA) and vacuum filtration using a 12-well sampling manifold (Brandel Cell Harvester) and Whatman GF/B glass-fibre filters that had been soaked in wash buffer at 4° C. for 24 hours. Each reaction tube was washed three times with a 4 ml aliquot of buffer. The filters were oven-dried for 60 minutes and then placed in 5 ml of scintillation fluid (Ultima Gold XR, Packard). Radioactivity was quantified by liquid scintillation spectrometry. Specific binding was defined as the difference between the binding that occurred in the presence and absence of 1 μm reference cannabidiol. Protein assays were performed using a Bio-Rad Dc kit. […] […] Competitive binding curves were fitted with minimum values for displacement of radio ligand from specific binding sites constrained to zero.
Additionally, binding of an MCA, described herein, was tested for this reference sample. The resulting displacement and binding values were used as a reference standard against which 26 CBD samples (acquired from Natural Hemp Solutions, Atlanta Ga.) were compared.

[1] = labelled cannabinoid [3H]-CP55940

T1 sequence (P34972 whole entry): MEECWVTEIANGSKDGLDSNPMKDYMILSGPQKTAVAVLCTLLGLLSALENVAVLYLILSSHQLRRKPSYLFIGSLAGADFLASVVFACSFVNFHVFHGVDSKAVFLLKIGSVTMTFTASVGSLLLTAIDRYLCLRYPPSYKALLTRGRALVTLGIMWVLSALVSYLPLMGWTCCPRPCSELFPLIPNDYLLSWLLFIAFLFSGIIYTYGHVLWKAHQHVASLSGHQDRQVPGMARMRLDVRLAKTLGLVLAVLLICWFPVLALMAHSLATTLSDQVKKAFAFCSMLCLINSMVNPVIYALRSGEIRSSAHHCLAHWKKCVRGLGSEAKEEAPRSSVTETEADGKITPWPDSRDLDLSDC

SMILES: COc1ccc(C(=O)c2c(C)n(CCN3CCOCC3)c3cc(I)ccc23)cc1 [AM630]
- Ki [1]: 31.2 ± 12.4 nM
- Ki (labelled cannabinoid [3H]-W1N55212-2): 37.5 ± 15.4 nM

SMILES: CCCCCCC(C)(C)c1cc(OC)c2c(c1)OC(C)(C)[C@@H]1CC=C(C)C[C@@H]21 [Sample L759633]
- Ki [1]: 6.4 ± 2.2 nM

SMILES: C=C1CC[C@@H]2[C@@H](C1)c1c(OC)cc(C(C)(C)CCCCCC)cc1OC2(C)C [Sample L759656]
- Ki [1]: 11.8 ± 2.5 nM
